# Assay results published in patent US8822423B2 (Janssen Biotech, Inc., priority 2012, dated 2014).
# Ends that are not written are not given here.
# Tested on: WEHI-13VAR mouse fibroblasts
# Assay: In vitro bioactivity of infliximab in the presence of affinity peptides, MTT cell viability with TNF-α
# Format: cell-based
# Settings: peptide 66 nanomolar, infliximab 0-66 nanomolar, overnight, FIG. 7
# Description: In this experiment, we determined if the affinity peptides would interfere with the binding of tumor necrosis factor alpha (TNF-α) using WEHI-13VAR mouse fibroblasts.
# WEHI-13VAR cells (mouse fibroblast cell line) were plated out in wells of a 96 well plate two hours prior to running the experiment at 50000 cells per well. […] After overnight incubation, cell viability was assessed using an MTT cell viability assay (R&D Systems, Inc., Minneapolis, Minn., cat #4890-050-K) following the product insert.
row,Substance,effect on the viability of WEHI-13VAR mouse fibroblasts in the presence of infliximab
1,"SEQ ID NO: 13: infliximab affinity peptide of FIG. 1; also chemically synthesized, biotinylated (AGPPCIVTQLSDLSFCAP; cysteine pairing not given here; also: biotinylated, position not given here)",minimal effect

# Tested on: infliximab
# Assay: Infliximab affinity peptide ELISA, concentration dependent binding
# Settings: biotinylated synthesized peptides, 0.0028-500 micromolar, FIG. 5
# Description: 96-well black ELISA plates were coated with goat anti-human Fc (Jackson Immunoresearch Laboratories, Inc., West Grove, Pa., cat. #109-006-098) at a concentration of 5 micrograms/mL in PBS. Plates were incubated overnight at 4° C. Plates were washed 3 times with TBST using a plate washer. […] To all other wells, 100 microliters of PBS was introduced. The plates were again washed 3 times with TBST using the plate washer. The wells were then blocked with 250 microliters of a 3% dehydrated milk suspension in TBST and allowed to sit at room temperature for a minimum of 1 hour. Biotinylated, chemically synthesized peptides having SEQ ID NO: 2, SEQ ID NO: 3, SEQ ID NO: 10, and SEQ ID NO: 13 were prepared using standard, automated Fluorenylmethyloxycarbonyl (Fmoc) solid phase peptide synthesis procedures. Each peptide solution for the assay was prepared from a 500 micromolar stock solution. The stock solution was serially diluted in assay buffer resulting in peptide concentrations of 500, 166.6, 55.5, 18.5, 6.2, 2.1, 0.69, 0.23, 0.076, 0.025, 0.0085 and 0.0028 micromolar.
# After blocking, the ELISA plate was washed 3 times with TBST and 100 microliters of the serially diluted peptides were added to the corresponding wells of the ELISA plate and allowed to sit at room temperature for a minimum of 1 hour. […] The luminescence was read using a luminometer set with a gain of 150.
row,Substance,rank according to concentration-dependent binding to infliximab
1,"SEQ ID NO: 3: infliximab affinity peptide of FIG. 1; also chemically synthesized, biotinylated (AGTYCHPDQLRNLCPV; cysteine pairing not given here; also: biotinylated, position not given here)",SEQ ID NO: 2>SEQ ID NO: 10>SEQ ID NO: 3>SEQ ID NO: 13
2,"SEQ ID NO: 13: infliximab affinity peptide of FIG. 1; also chemically synthesized, biotinylated (AGPPCIVTQLSDLSFCAP; cysteine pairing not given here; also: biotinylated, position not given here)",SEQ ID NO: 2>SEQ ID NO: 10>SEQ ID NO: 3>SEQ ID NO: 13

# Tested on: not given
# Assay: not given
# Settings: given by IV infusion; cited from earlier work
row,Substance,half-life
1,infliximab: chimeric IgG1κ monoclonal antibody that blocks the action of TNF-alpha,approximately eight

# Tested on: infliximab
# Assay: Confirmatory phage ELISA, binding of phage-displayed peptides to infliximab
# Settings: FIG. 3, N value of 2
# Description: 96-well black ELISA plates were coated with streptavidin (Columns 1 through 4), mAb competitor (Columns 5 and 6), hIgG (Columns 7 and 8), human serum albumin (Columns 9 and 10) and collagen (Columns 11 and 12), at a concentration of 5 micrograms/mL in PBS. Plates were incubated overnight at 4° C. Plates were washed 3 times with TBST using a plate washer. To the streptavidin-coated wells in columns 3 and 4, 100 microliters of a 5 micrograms/mL solution of biotinylated-infliximab was introduced and allowed to sit at room temperature for 30 minutes. To all other wells, 100 microliters of PBS was introduced. The plates were again washed 3 times with TBST using the plate washer. The wells were then blocked with 250 microliters of a 3% dehydrated milk suspension in TBST and allowed to sit at room temperature for a minimum of 1 hour. Using phage concentrations determined by the phage titrations, dilutions of the phage stock solutions were performed in a separate 96-well plate to result in phage concentrations of 10^10, 10^9, 10^8, 10^7, 10^6 and 10^5 phage/well. After blocking, the ELISA plate was washed 3 times with TBST and 100 microliters of the phage dilutions were introduced to the respective ELISA plates and allowed to sit at room temperature for a minimum of 1 hour. The ELISA plate was again washed 3 times with TBST using the plate washer and 100 microliters of an horseradish peroxidase (HRP)-conjugated Anti-M13 Phage Mab (1:5000 dilution in PBS) was introduced to each well. The plates were allowed to sit at room temperature for 1 hour after which time the plates were washed 3 times with TBST. Next, a peroxidase-based (POD) HRP-substrate was introduced to each well. The luminescence was read using a luminometer set with a gain of 150.
row,Substance,"binding to infliximab (phage ELISA, relative luminescence)"
1,"SEQ ID NO: 1: infliximab affinity peptide of FIG. 1, identified by pIX phage display (AGWTVAYVPPGPSYATS)",confirms the binding
2,"SEQ ID NO: 3: infliximab affinity peptide of FIG. 1; also chemically synthesized, biotinylated (AGTYCHPDQLRNLCPV; cysteine pairing not given here; also: biotinylated, position not given here)",confirms the binding
3,"SEQ ID NO: 4: infliximab affinity peptide of FIG. 1, identified by pIX phage display (AGVTCRMTEYGPMCPT)",confirms the binding
4,"SEQ ID NO: 5: infliximab affinity peptide of FIG. 1, identified by pIX phage display (AGNRCAYAAGTIQCFP)",confirms the binding
5,"SEQ ID NO: 6: infliximab affinity peptide of FIG. 1, identified by pIX phage display (AGEICYWHDTDWVCTE)",confirms the binding
6,"SEQ ID NO: 7: infliximab affinity peptide of FIG. 1, identified by pIX phage display (AGTHCSYVLGRIECLP)",confirms the binding
7,"SEQ ID NO: 8: infliximab affinity peptide of FIG. 1, identified by pIX phage display (AGNYCHPDQLSQFCAR)",confirms the binding
8,"SEQ ID NO: 9: infliximab affinity peptide of FIG. 1, identified by pIX phage display (AGVACHSTGTNIYTCTY)",confirms the binding
9,"SEQ ID NO: 11: infliximab affinity peptide of FIG. 1, identified by pIX phage display (AGSLCHTVGSGIYNCTK)",confirms the binding
10,"SEQ ID NO: 12: infliximab affinity peptide of FIG. 1, identified by pIX phage display (AGIQCHDVGAGVVTCTY)",confirms the binding
11,"SEQ ID NO: 13: infliximab affinity peptide of FIG. 1; also chemically synthesized, biotinylated (AGPPCIVTQLSDLSFCAP; cysteine pairing not given here; also: biotinylated, position not given here)",confirms the binding
12,"SEQ ID NO: 14: infliximab affinity peptide of FIG. 1, identified by pIX phage display (AGARCAPAFDANWLICSN)",confirms the binding
13,"SEQ ID NO: 15: infliximab affinity peptide of FIG. 1, identified by pIX phage display (AGPPCAAAMAQAQLACTH)",confirms the binding
14,"SEQ ID NO: 16: infliximab affinity peptide of FIG. 1, identified by pIX phage display (AGVVCATPEWTWDPACAT)",confirms the binding
15,"SEQ ID NO: 17: infliximab affinity peptide of FIG. 1, identified by pIX phage display (AGLLCAPSLDPDYILCDQ)",confirms the binding
16,SEQ ID NO: 18: infliximab affinity peptide of FIG. 1; wild type for site-directed mutagenesis (AG-XXXX-PWPPTAES-XXXX mutants) (AGLLCEPWPPTAESICRS),confirms the binding
17,"SEQ ID NO: 19: infliximab affinity peptide of FIG. 1, identified by pIX phage display (AGPPYTVFVHL)",confirms the binding
18,"SEQ ID NO: 20: infliximab affinity peptide of FIG. 1, identified by pIX phage display (AGYCISDYIDPCH)",confirms the binding
19,"SEQ ID NO: 21: infliximab affinity peptide of FIG. 1, identified by pIX phage display (AGPCISDYFDPCH)",confirms the binding
20,"SEQ ID NO: 22: infliximab affinity peptide of FIG. 1, identified by pIX phage display (AGLCPELPHC)",confirms the binding
21,"SEQ ID NO: 23: infliximab affinity peptide of FIG. 1, identified by pIX phage display (AGPCPELPHCTY)",confirms the binding
